Reference: publication PMC11601558, “SLC6A19 inhibition facilitates urinary neutral amino acid excretion and lowers plasma phenylalanine” (JCI Insight, 2024)
Several values for one entry are separate records, joined by “and”; a condition that tells them apart may be missing. Equal values may be shown once. Read-outs that look alike come from different tables or passages of the source.

Target: T1, human SLC6A19 (Homo sapiens, UniProt Q695T7)
T1 construct: expressed in transfected cells
T1 sequence (Q695T7 1-634): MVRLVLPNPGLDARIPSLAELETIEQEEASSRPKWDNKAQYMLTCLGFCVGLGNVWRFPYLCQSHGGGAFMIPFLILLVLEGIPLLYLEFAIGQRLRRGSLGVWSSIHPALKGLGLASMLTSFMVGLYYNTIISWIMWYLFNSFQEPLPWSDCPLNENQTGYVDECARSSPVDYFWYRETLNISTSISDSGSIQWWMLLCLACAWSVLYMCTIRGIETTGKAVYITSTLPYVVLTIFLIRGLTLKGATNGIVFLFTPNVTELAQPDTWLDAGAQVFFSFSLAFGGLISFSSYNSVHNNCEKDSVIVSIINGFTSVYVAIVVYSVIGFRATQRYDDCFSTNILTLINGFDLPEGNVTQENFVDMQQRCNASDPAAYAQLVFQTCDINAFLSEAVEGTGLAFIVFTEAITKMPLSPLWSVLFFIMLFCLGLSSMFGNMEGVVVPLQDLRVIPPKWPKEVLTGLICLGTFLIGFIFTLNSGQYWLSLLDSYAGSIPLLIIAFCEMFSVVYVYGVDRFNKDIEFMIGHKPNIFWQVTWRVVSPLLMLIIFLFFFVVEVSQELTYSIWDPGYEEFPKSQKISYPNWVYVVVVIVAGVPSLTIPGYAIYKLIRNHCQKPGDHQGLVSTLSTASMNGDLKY
T1 sequence (Q9HBJ8 15-222 partner): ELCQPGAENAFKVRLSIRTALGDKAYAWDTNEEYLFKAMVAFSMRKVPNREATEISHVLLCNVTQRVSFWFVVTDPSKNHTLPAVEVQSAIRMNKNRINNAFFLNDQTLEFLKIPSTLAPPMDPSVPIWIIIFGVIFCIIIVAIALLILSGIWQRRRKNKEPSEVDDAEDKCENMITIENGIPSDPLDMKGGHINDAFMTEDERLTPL
Assay: Isoleucine transport assay, Flp-In T-REx 293 cells coexpressing human SLC6A19 and TMEM27
Type: cell-based
Details: for isoleucine transport, Human (Fig 1c curve point) / isoleucine transport, Human (Fig 1f curve point): technical replicates
Procedure: Flp-In T-REx 293 cells (Thermo Fisher Scientific) were engineered to coexpress C-terminally V5-tagged human or mouse SLC6A19 under the control of a tetracycline-inducible promoter and human or mouse myc-DDK-tagged TMEM27 under the control of a constitutively active promoter. Cells were maintained in DMEM/F12 medium supplemented with 10% FBS, 100 units/mL penicillin, 100 μg/mL streptomycin, 200 μg/mL hygromycin, 10 μg/mL blasticidin, and 300 μg/mL geneticin (all from Thermo Fisher Scientific) at 37°C and 5% CO2.
Flp-In T-REx 293 cells stably coexpressing human or mouse SLC6A19 and TMEM27 were plated in 384-well plates in the presence of 1 μg/mL tetracyclin (Sigma-Aldrich) to induce the expression of SLC6A19. After 24 hours, cells were washed with live cell imaging solution (LCIS, Thermo Fisher Scientific) before JN-170 or JNT-517 were added to cells in 10-point concentration response curves in 0.5% DMSO in Krebs buffer (140 mM NaCl, 4.7 mM KCl, 2.5 mM CaCl2, 1.2 mM MgCl2, 11 mM HEPES, 10 mM glucose, pH 7.4). Cells were incubated with compounds for 1 hour at room temperature before 1 mM ^13C6,^15N1-labeled L-isoleucine (Cambridge Isotope Laboratories) was added as a transport substrate. After 20 minutes incubation at room temperature, cells were washed and lysed in H2O with 15 μM internal standard D-Leucine-D10 (CDN Isotopes) for 1–2 hours. A standard curve of ^13C6,^15N1-L-isoleucine was added to each plate following cell lysis. Plates were centrifuged at 3,700g to remove cell debris, and supernatant was diluted in 2 steps to a final 1:10 dilution in acetonitrile/0.1% formic acid. Sample desalting was performed on a high throughput RapidFire-365 (Agilent) using a hydrophilic interaction liquid chromatography (HILIC) column. A quantitative time-of-flight (Q-ToF) mass spectrometer (Agilent) was used to detect analytes. Agilent MassHunter quantitative analysis for time of flight was used as the integration software for measuring area under the peak for both ^13C6,^15N1-L-isoleucine and D-Leucine-D10 internal standard.
IC50 values for transport inhibition in cells overexpressing SLC6A19 and TMEM27 were calculated using a 4-parameter logistic regression in Collaborative Drug Discovery (CDD). Reported IC50 values are geometric means of 4–6 independent experiments. For postmortem intestinal transport assays, single outliers of quadruplicate replicates were excluded from the calculation if a signal value’s distance to the mean exceeded 35% of the signal average. The IC50 values of individual experiments were calculated with a 3- or 4-parameter logistic regression using GraphPad Prism 9. The reported IC50 value represents the geometric mean of n = 5 experiments from 3 individual donors. Statistical comparison of urinary Phe excretion in Pah^enu2 mice treated with vehicle or JN-170 was conducted using 1-way analysis of variance (ANOVA) with Tukey’s post hoc comparison. Statistical analysis of baseline-adjusted plasma Phe in mice treated with vehicle or JN-170 was determined by 2-way ANOVA with Dunnett’s post hoc comparison. All statistical analyses were performed using GraphPad Prism 9. For clinical studies, group sizes were not determined based on statistical power calculations. Statistical significance of pharmacodynamic results was not assessed. Values are reported as mean (urinary Phe excretion, T1/2, Cl/F), geometric mean (Cmax/D, AUC0-inf/D), or median (Tmax).

For `NC(=O)N1CCC[C@@H](N(C(=O)NCc2ccc(OC(F)(F)F)cc2F)C2CC2)C1` [JNT-517], the “isoleucine transport, Human (Fig 1c curve point)” value (0.000722 uM) was 89.9 and 94.8, the “isoleucine transport, Human (Fig 1c curve point)” value (0.00219 uM) was 91.3 and 95.5 and the “isoleucine transport, Human (Fig 1c curve point)” value (0.00438 uM) was 79.4 and 85.4. For the same compound, the “isoleucine transport, Human (Fig 1c curve point)” value (0.0153125 uM) was 71.2 and 80.7, the “isoleucine transport, Human (Fig 1c curve point)” value (0.048125 uM) was 33.9 and 45.4 and the “isoleucine transport, Human (Fig 1c curve point)” value (0.144375 uM) was 25.9 and 24. For the same compound, the “isoleucine transport, Human (Fig 1c curve point)” value (0.4375 uM) was 12.2 and 4.05, the “isoleucine transport, Human (Fig 1c curve point)” value (1.3125 uM) was -3.01 and -3.67 and the “isoleucine transport, Human (Fig 1c curve point)” value (3.9375 uM) was -3.2 and -3.39. The “isoleucine transport, Human (Fig 1c curve point)” value (11.8125 uM) was -9.74 and -5.08 and the IC50 (geometric mean n = 4, 95% CI 38–57 nM, read-out: potency (IC50) against human SLC6A19, isoleucine transport assay) was 47 nM.

For `N#Cc1ccc(-c2noc([C@]3(C(F)(F)F)CCN(C(=O)NCCC4(N)CC4)C3)n2)cc1` [JN-170], the “fold less potent against human SLC6A19 than mouse SLC6A19” value was > 10 fold, the “isoleucine transport, Human (Fig 1f curve point)” value (0.000722 uM) was 84.3 and 86.8 and the “isoleucine transport, Human (Fig 1f curve point)” value (0.00219 uM) was 72.6 and 89.2. The “isoleucine transport, Human (Fig 1f curve point)” value (0.00438 uM) was 81.4 and 98.3, the “isoleucine transport, Human (Fig 1f curve point)” value (0.015313 uM) was 84.4 and 88.8 and the “isoleucine transport, Human (Fig 1f curve point)” value (0.048125 uM) was 85.9 and 72.3. The “isoleucine transport, Human (Fig 1f curve point)” value (0.144375 uM) was 64.5 and 70.3, the “isoleucine transport, Human (Fig 1f curve point)” value (0.4375 uM) was 40 and 54.4 and the “isoleucine transport, Human (Fig 1f curve point)” value (1.3125 uM) was 41.1 and 23.8. The “isoleucine transport, Human (Fig 1f curve point)” value (3.9375 uM) was 21 and 4.32, the “isoleucine transport, Human (Fig 1f curve point)” value (11.8125 uM) was 2.26 and -9.71 and the IC50 (geometric mean n = 6, 95% CI 0.68–2.82 μM, read-out: IC50 against human SLC6A19, isoleucine transport assay) was 1250 nM.
